Data on 2 molecules can be found in patent US20180256561A1, “Pharmaceutical Combination” (GLAXOSMITHKLINE INTELLECTUAL PROPERTY DEVELOPMENT LIMITED, priority 2015, published 2018).

Data set [1] deals with subjects with COPD. The conditions noted are these: 28-day study; cited from earlier work.
Data set [2] deals with subjects with COPD. Conditions: 400 mcg and 1200 mcg once daily, 14 days; cited from earlier work.
Data set [3] relates to subjects with persistent uncontrolled asthma. The data set can be described thus: Randomised, double-blind, placebo-controlled parallel group study of fluticasone furoate in subjects with persistent uncontrolled asthma (8 weeks). The data set is classed as in vivo, human. As to the method:
In one such study, the safety and efficacy of four doses of fluticasone furoate in subjects with persistent uncontrolled asthma were evaluated. In this study, which was a randomised, double-blind, placebo-controlled, parallel group study, 598 patients received one of six treatments: fluticasone furoate (25, 50, 100 or 200 mcg) once daily, fluticasone propionate 100 mcg twice daily or placebo for 8 weeks. The primary endpoint was change from baseline in trough (pre-dose) forced expiratory volume in 1 second (FEV1) at Week 8. […] This study supports the use of fluticasone furoate (100 or 200 mcg once-daily) for the treatment of persistent uncontrolled asthma.

Read-outs that look alike come from different tables or passages of the source. Where only a bound is given, the exact number is not on record here.

As for `COc1cc(NC(=O)CCN2CCC(OC(=O)Nc3ccccc3-c3ccccc3)CC2)c(Cl)cc1CNC[C@H](O)c1ccc(O)c2[nH]c(=O)ccc12` [Compound 1, biphenyl-2-ylcarbamic acid 1-[2-(2-chloro-4-{[(R)-2-hydroxy-2-(8-hydroxy-2-oxo-1,2-dihydroquinolin-5-yl)ethylamino]methyl}-5-methoxyphenylcarbamoyl)ethyl]piperidin-4-yl ester], the tolerability entry with subjects with COPD [1] and with subjects with COPD [2] was “well tolerated” in each case.
Take `C[C@@H]1C[C@H]2[C@@H]3C[C@H](F)C4=CC(=O)C=C[C@]4(C)[C@@]3(F)[C@@H](O)C[C@]2(C)[C@@]1(OC(=O)c1ccco1)C(=O)SCF` [Compound 2, 6α,9α-difluoro-17α-[(2-furanylcarbonyl)oxy]-11β-hydroxy-16α-methyl-3-oxo-androsta-1,4-diene-17β-carbothioic acid S-fluoromethyl ester]: the “increase in trough FEV1 from baseline at Week 8 relative to placebo” value in data set [3] (100 mcg once daily) and in data set [3] (200 mcg once daily) was greater than 200 mL in each case.
